13 compounds from US5972956A, “Inhibition of amyloidosis by 9-acridinones” (Warner-Lambert Company, priority 1998, dated 1999) can be followed below.

Molecules are shown by their SMILES.

The target of the assay is T1, beta amyloid peptide (1-40) (Homo sapiens, UniProt P05067).
T1 construct: beta amyloid peptide (1-40)
T1 sequence (P05067 672-711 limits assumed): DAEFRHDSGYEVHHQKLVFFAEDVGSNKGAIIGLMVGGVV
The assay is described as follows: in vitro amyloid aggregation assay (filtration of I125-labeled peptide aggregates). To be noted: beta amyloid peptide (1-40) with I125 labeled peptide, sodium phosphate buffer pH 6.0, 2 hours at room temperature; read-out: IC50, concentration required to cause a 50% inhibition of amyloid aggregation. It counts as biochemical. How it is done: The ability of the 9-acridinone compounds of the above formula to inhibit amyloid aggregation has been established in a standard in vitro assay. The assay is carried out by mixing beta amyloid peptide (1-40) with radioiodinated (I^125) labeled peptide to a concentration of 2.5 mg/mL in hexafluoroisopropanol. The mixture is diluted 1 to 5 with water (v/v). […] of the solution is mixed with 25 μL of 25 mM sodium phosphate buffer pH 6.0. The mixture is allowed to aggregate for 2 hours at room temperature with and without a test compound present. The mixtures are then diluted to 235 μL with phosphate buffer to stop the aggregation process. The solutions are passed through a 0.2-μm millipore filtermat. Aggregated protein remains in the filter well. The filter plate is washed with 50 μL of phosphate buffer and then soaked in solid gel scintillant and counted on a Microbeta counter to determine the amount of aggregation in the presence of a test compound versus control with no test compound.
Several representative 9-acridinone compounds have been evaluated in the above assay and shown to inhibit amyloid aggregation. The following table presents the activity of selected compounds, reported as the molar concentration of compounds required to cause a 50% inhibition (IC50) of amyloid aggregation in the above assay.
As for `CCOc1ccc2[nH]c3c([N+](=O)[O-])ccc(NC(C)CN(C)C)c3c(=O)c2c1` (stereo not shown) [compound 13], the IC50 came to 24.3 µM.
Turning to `CCN(CC)CCNc1ccc([N+](=O)[O-])c2[nH]c3ccc(O)cc3c(=O)c12` [Compound No. 9], the IC50 was 20.5 µM.
Under `CCN(CC)CCCNc1ccc([N+](=O)[O-])c2[nH]c3ccc(OC)cc3c(=O)c12` [compound 5] stands 21 µM.
Regarding `CCN(CC)CCNc1ccc([N+](=O)[O-])c2[nH]c3ccc(SC)cc3c(=O)c12` [compound 2], the IC50 was found to be 9 µM.
Turning to `CCN(CC)CCNc1ccc([N+](=O)[O-])c2[nH]c3ccc(OCCN(CC)CC)cc3c(=O)c12` [compound 7], the IC50 was 35.6 µM.
The figure for `CCN(CC)CCNc1ccc([N+](=O)[O-])c2[nH]c3ccccc3c(=O)c12` [compound 11] is 29.5 µM.
For the compound `CCCCOc1ccc2[nH]c3c([N+](=O)[O-])ccc(NCCN(C)C)c3c(=O)c2c1` [compound 4], the IC50 turned out to be 25 µM.
In the case of `CCOc1ccc2[nH]c3c([N+](=O)[O-])ccc(NCCN(CCO)CCO)c3c(=O)c2c1` [compound 8], the IC50 stood at 20 µM.
On to `CSc1ccc2[nH]c3c([N+](=O)[O-])ccc(NCCCN(C)C)c3c(=O)c2c1` [compound 1], for which the IC50 was found to be 7.1 µM.
With `CCN(CC)CCNc1ccc([N+](=O)[O-])c2[nH]c3cc(Cl)c(OC)cc3c(=O)c12` [compound 6], the IC50 was 18.7 µM.
Regarding `CCN(CC)CCNc1ccc([N+](=O)[O-])c2[nH]c3cc(OC)c(OC)cc3c(=O)c12` [compound 3], the IC50 amounted to 11 µM.
In the case of `CCN(CC)CCNc1ccc([N+](=O)[O-])c2[nH]c3ccc(OC)cc3c(=O)c12` [compound 10], the IC50 came to 13.9 µM.
As to `CCN(CC)CCNc1ccc([N+](=O)[O-])c2c1c(=O)c1cc(OC)ccc1n2C` [compound 12], the IC50 amounted to 23.2 µM.
